Activity calls are given as the source filed them. Rule as the data show it: actives have a measured IC50 and inactives only a lower limit.

The assay deals with Envelope glycoprotein gp160 (Human immunodeficiency virus 1, UniProt Q6QLK5). The assay is described as follows: cell-free HIV fusion peptide-binding blockers – biochemical, uHTS, fluorescence dequenching, […] (AID 1986).
Sequence of Envelope glycoprotein gp160 (Q6QLK5 whole entry, the tested form may be a part): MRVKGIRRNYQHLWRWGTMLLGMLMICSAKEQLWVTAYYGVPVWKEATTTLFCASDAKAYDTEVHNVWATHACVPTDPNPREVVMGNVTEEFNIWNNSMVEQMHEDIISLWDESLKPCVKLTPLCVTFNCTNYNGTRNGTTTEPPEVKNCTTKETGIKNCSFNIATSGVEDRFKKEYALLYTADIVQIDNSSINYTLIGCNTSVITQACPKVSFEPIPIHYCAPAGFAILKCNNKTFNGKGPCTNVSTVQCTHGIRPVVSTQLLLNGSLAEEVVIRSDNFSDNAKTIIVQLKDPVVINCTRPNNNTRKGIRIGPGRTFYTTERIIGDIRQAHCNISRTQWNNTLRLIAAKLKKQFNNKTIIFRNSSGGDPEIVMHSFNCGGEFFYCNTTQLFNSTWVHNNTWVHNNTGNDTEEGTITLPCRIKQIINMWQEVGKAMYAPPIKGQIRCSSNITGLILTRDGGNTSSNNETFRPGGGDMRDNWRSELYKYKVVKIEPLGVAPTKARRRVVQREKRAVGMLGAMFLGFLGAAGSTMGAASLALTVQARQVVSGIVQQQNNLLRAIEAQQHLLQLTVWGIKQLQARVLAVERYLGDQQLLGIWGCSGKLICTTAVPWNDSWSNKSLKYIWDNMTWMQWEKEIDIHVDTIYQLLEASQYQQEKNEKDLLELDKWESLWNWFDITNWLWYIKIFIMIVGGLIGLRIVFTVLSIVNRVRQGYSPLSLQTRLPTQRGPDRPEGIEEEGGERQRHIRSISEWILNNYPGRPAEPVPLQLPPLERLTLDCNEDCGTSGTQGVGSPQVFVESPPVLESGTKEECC

Turning to `O=C(Nc1ccc(C(=O)O)cc1)/C(=C\C=C\c1ccccc1)NC(=O)c1cccc(Br)c1`, the half-maximal inhibitory concentration (IC50) (in general, the concentration that inhibits the measured activity by half) was 22.6 µM (active).

For the origin of these results see ChEMBL document CHEMBL1201862, “PubChem BioAssay data set” (2004).
